Results published in patent US9624502B2, “Methods of controlling plant seed and organ size” (PLANT BIOSCIENCE LIMITED, priority 2007, dated 2017).
Where a SMILES comes first, the peptide text is derived from it. The star is where a group is joined. Cbz = O=C(OCc1ccccc1)*

Columns and labels:
[1] = system: DA1 gene; assay: DA1 gene expression after phytohormone treatment, quantitative RT-PCR; assay type: in vivo, Arabidopsis thaliana
Source text: (§1) (A) DA1 gene structure, showing the mutated sites of da1-1, sod1-1, sod1-2, and sod1-3 alleles. The start codon (ATG) and the stop codon (TGA) are indicated. Closed boxes indicate the coding sequence and lines between boxes indicate introns. T-DNA insertion sites (da1-ko1, da1-ko2 and da1-ko3) in DA1 gene are shown. (B to G) DA1 promoter activity monitored by pDA1::GUS transgene expression. GUS staining in seedlings (B and C), an embryo (D), roots (E), and petals (F and G). (H and I) The flowers of Col-0 (H) and da1-ko1dar1-1 double mutant (I). (J) Siliques of Col-0 (left) and da1-ko1dar1-1 double mutant (right). (K) Petal area of Col-0, da1-ko1, dar1-1, da1-ko1dar1-1 double mutants. […] 7 d-old WT seedlings were treated with 10 μm ABA for 2, 4, 6, 18 and 30 hours. (M and N) Wild type Col-0 and da1-1 seeds were grown on MS medium with 2 μm ABA under constant light conditions. […] Scale bars: 1 mm (B, H, I, M, and N), 50 μm (C and E), 0.5 mm (C and J), 0.1 mm (F and G), 0.5 cm (0).
(§2) Relatively high levels of GUS activity were detected in proliferating tissues (FIG. 3c-f). In addition, the DA1 promoter is also active in roots (FIG. 3b, c). Given the effects of hormones on organ growth, we tested whether any major classes of phytohormones (abscisic acid, jasmonic acid, ethylene, auxin, cytokinin, gibberellin, brassinosteroids and glucose) could influence transcription of DA1 gene. […]

[2] = system: da1-1 mutant seedlings; assay: Seedling establishment and growth on MS medium with ABA, da1-1 mutant; assay type: in vivo, Arabidopsis thaliana
Source text: as §1, §2

[3] = system: wild type Col-0 seedlings; assay: Seedling growth on MS medium with ABA, wild type; assay type: in vivo, Arabidopsis thaliana; conditions: 4 d-old seedlings transferred to MS medium with 5 μm ABA for 3 weeks
Source text: as §1

[4] = system: proteasome; assay: Stability of DA1 protein in cell-free Arabidopsis protein extracts with ATP, Western analysis; assay type: biochemical; conditions: GST-DA1 incubated with Arabidopsis protein extracts and ATP; Western with DA1 antibody
Protocol: This is supported by the observation that detection of DA1 protein with a good specific antibody in plant extracts is very difficult. We therefore tested the stability of DA1 protein in Arabidopsis using DA1 protein expressed in E. coli and cell-free protein extracts from Arabidopsis. Full length DA1 protein expressed and purified as an N-terminal GST fusion protein, was incubated with Arabidopsis protein extracts and ATP, and subjected to Western analysis using a specific DA1 antibody. […] The UIM motifs of DA1 are predicted, based on knowledge of UIM function in animal cells, to be involved in ubiqutination. It may be that DA1 is ubiquitinated and targeted for degradation as part of the mechanism of growth control.

SMILES | expression of DA1 ([1]; 7 d-old WT seedlings treated with 10 μm ABA for 2, 4, 6, 18 and 30 hours, quantitative RT-PCR) | expression level of the DA1 gene (transcription) after phytohormone treatment ([1]; major classes of phytohormones tested) | growth of da1-1 mutant seedlings ([2]; 4 d-old seedlings transferred to MS medium with 5 μm ABA for 3 weeks) | seedling establishment of da1-1 mutant ([2]; seeds grown on MS medium with 2 μm ABA under constant light) | growth of wild type Col-0 seedlings [3] | effect on degradation of DA1 protein [4]
CC1=CC(=O)CC(C)(C)[C@@]1(O)/C=C/C(C)=C\C(=O)O [ABA, abscisic acid] | slowly induced | induced slowly | continue to grow | ABA-insensitive seedling establishment | inhibit the growth | 
CC(C)C[C@@H](C=O)NC(=O)[C@H](CC(C)C)NC(=O)[C@H](CC(C)C)NC(=O)OCc1ccccc1 [MG132] (Cbz-Leu-Leu-Leu-aldehyde) |  |  |  |  |  | abolish this degradation
